Reference: patent US12233070B2, “Methods for treating benzodiazepine misuse/use disorder” (University of M[…] Center, priority 2020, dated 2025)

What was measured:
[1] = biological target: α2 subunit-containing GABAA receptors (Homo sapiens, UniProt P18507+P47869); parameters: key: act as partial positive modulators for particular subtype combinations; none: zero efficacy (i.e., antagonism) at other subtypes; conditions: cited from earlier work
[2] = biological target: α3 subunit-containing GABAA receptors (Homo sapiens, UniProt P18507+P34903); parameters: key: act as partial positive modulators for particular subtype combinations; none: zero efficacy (i.e., antagonism) at other subtypes; conditions: cited from earlier work
α3 subunit-containing GABAA receptors, sequence (P34903 29-492): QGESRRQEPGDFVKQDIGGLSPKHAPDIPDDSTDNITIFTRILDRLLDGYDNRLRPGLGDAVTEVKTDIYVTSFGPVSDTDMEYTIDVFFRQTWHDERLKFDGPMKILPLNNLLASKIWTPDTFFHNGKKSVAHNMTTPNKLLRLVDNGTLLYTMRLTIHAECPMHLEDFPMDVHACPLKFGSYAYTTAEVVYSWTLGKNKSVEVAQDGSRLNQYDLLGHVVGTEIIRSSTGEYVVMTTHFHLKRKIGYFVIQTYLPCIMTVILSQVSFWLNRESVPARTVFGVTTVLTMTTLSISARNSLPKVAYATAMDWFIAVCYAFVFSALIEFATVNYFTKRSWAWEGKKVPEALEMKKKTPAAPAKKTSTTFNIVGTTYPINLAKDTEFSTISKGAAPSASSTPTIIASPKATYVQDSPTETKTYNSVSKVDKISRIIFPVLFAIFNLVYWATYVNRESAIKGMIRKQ
α3 subunit-containing GABAA receptors, sequence (P18507 40-475): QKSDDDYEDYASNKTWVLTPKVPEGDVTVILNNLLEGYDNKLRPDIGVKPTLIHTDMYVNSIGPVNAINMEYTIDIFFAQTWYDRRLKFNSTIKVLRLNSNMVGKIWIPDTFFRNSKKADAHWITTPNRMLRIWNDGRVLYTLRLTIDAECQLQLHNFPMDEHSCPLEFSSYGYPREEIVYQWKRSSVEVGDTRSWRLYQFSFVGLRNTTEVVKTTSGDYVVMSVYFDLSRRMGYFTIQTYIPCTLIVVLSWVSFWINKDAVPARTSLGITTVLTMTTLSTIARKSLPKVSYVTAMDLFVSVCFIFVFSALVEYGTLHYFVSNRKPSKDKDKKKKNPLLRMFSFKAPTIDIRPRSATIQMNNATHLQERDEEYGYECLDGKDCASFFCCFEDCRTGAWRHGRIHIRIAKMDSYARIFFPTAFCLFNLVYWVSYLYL
α3 subunit-containing GABAA receptors, sequence (P28472 26-473 partner): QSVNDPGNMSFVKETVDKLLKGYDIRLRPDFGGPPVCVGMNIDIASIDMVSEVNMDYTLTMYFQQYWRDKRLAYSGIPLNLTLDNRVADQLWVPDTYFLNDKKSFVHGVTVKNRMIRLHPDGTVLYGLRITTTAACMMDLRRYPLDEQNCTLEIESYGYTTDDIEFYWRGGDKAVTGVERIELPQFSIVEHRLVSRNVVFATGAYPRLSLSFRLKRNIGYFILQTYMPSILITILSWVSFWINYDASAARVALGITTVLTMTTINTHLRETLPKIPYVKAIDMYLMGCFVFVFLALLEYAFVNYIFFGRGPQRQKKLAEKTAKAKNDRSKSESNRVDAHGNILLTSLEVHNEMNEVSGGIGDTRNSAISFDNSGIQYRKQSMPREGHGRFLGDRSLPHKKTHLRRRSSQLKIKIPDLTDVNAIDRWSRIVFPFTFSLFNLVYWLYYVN

GABAA receptor subtypes = conditions: cited from earlier work
rats = assay: Blockade of diazepam suppression of responding (30 min pretreatment); type: in vivo, rat; conditions: ligand 3.0 mg/kg; diazepam 30 min pretreatment; FIG. 12A; N=5
Method: This profile is very similar to that of TPA023B despite the structural differences. […] For both compounds, we chose 3.0 mg/kg, i.p., in rats based on published literature or pilot studies in our laboratories.
FIGS. 12A and 12B illustrate the results of acute dependency testing using these compounds.

[3] = biological target: α1 subunit-containing GABAA receptors (Homo sapiens, UniProt P14867+P18507); parameters: key to Subtype α1: act as partial positive modulators for particular subtype combinations; none: zero efficacy (i.e., antagonism) at other subtypes; conditions: cited from earlier work
α1 subunit-containing GABAA receptors, sequence (P14867 28-456): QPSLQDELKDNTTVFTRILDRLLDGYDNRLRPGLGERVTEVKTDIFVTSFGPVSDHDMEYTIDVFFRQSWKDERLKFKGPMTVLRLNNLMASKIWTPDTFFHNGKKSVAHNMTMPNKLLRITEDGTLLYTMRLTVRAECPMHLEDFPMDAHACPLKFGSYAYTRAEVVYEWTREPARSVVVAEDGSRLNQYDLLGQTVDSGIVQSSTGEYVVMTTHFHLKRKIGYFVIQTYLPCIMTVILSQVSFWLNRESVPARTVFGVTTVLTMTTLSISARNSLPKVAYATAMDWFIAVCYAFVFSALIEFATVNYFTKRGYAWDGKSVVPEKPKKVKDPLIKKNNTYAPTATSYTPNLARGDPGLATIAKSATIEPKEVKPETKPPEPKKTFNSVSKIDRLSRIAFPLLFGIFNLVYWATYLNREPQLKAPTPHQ
α1 subunit-containing GABAA receptors, sequence (P18507 40-475): as the sequence (P18507 40-475) above
α1 subunit-containing GABAA receptors, sequence (P28472 26-473 partner): as the sequence (P28472 26-473 partner) above

Sprague-Dawley rats = assay: Precipitated withdrawal/acute dependence: responding 60 min after diazepam bolus; type: in vivo, rat; conditions: ligand 3.0 mg/kg; FIG. 12B; N=5
Method: Acute dependence can occur after single exposures to the benzodiazepine chlordiazepoxide, but not to an α2/3GABAA selective ligand (Fischer et al. 2013, Psychopharmacology 227: 347-54). Here, the extent to which TPA023B can precipitate withdrawal in rats following a single, large bolus dose of diazepam was studied. […] Once rates of responding were stable, doses of diazepam, the non-selective benzodiazepine antagonist flumazenil, and TPA023B were administered prior to the session.

[4] = rhesus monkey, cited from earlier work
[5] = parameters: key to Pharmacokinetics: “poor” - low bioavailability and/or short half-life; “good” - potent with long half-life; conditions: in vivo; cited from earlier work
[6] = biological target: α5 subunit-containing GABAA receptors (Homo sapiens, UniProt P18507+P31644); parameters: key to Subtype α5: act as partial positive modulators for particular subtype combinations; none: zero efficacy (i.e., antagonism) at other subtypes; conditions: cited from earlier work
α5 subunit-containing GABAA receptors, sequence (P31644 32-462): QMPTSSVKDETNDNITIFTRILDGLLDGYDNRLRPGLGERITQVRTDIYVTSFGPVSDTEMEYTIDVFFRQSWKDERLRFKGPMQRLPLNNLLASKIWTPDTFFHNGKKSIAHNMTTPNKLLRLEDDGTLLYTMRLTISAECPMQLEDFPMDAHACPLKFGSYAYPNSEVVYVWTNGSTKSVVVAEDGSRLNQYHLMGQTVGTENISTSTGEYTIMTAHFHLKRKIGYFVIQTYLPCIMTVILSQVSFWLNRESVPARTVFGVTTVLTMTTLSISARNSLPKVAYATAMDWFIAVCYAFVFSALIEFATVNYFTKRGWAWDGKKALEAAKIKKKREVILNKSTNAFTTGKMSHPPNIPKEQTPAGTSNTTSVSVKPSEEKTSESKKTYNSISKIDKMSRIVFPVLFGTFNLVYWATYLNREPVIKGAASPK
α5 subunit-containing GABAA receptors, sequence (P18507 40-475): as the sequence (P18507 40-475) above
α5 subunit-containing GABAA receptors, sequence (P28472 26-473 partner): as the sequence (P28472 26-473 partner) above

[7] = tested on: patients with Generalized Anxiety Disorder; conditions: cited from earlier work
rhesus monkeys [8] = assay: i.v. self-administration under progressive-ratio (PR) schedule; type: in vivo, rhesus monkey; conditions: dose at which self-administration was highest; n=4 monkeys; FIG. 5
Description: The abuse potential of novel compounds can be determined by use of i.v. self-administration procedures, in which a compound is available to a subject previously trained to press a lever to obtain a known drug of abuse. Our standard procedure is to use a progressive-ratio (PR) schedule, in which an increasing number of responses are required to obtain an injection. The last response requirement completed is referred to as a “break point” (BP) and represents the maximum amount of “work” a subject will perform to obtain the drug or compound.
In the present example, eight rhesus monkeys (4 females, 4 males) were trained to respond under a schedule of i.v. midazolam (a conventional benzodiazepine) injection at 0.03 mg/kg/injection. Once self-administration had been acquired (>20 injections/daily 2-hour sessions), monkeys were trained under the PR schedule as described by Shinday et al. (2013). Daily experimental sessions consisted of five components, each made up of four trials (i.e., 20 trials total). […]
In order to directly compare lorazepam and TPA023B self-administration, we here analyzed BP values at the doses that maintained the highest level of mean injections/session and compared these BP values with those obtained after vehicle tests.

rhesus monkeys [9] = conditions: visual recognition memory and spatial working memory; cited from earlier work

α2 subunit-containing GABAA receptors, sequence (P47869 29-451): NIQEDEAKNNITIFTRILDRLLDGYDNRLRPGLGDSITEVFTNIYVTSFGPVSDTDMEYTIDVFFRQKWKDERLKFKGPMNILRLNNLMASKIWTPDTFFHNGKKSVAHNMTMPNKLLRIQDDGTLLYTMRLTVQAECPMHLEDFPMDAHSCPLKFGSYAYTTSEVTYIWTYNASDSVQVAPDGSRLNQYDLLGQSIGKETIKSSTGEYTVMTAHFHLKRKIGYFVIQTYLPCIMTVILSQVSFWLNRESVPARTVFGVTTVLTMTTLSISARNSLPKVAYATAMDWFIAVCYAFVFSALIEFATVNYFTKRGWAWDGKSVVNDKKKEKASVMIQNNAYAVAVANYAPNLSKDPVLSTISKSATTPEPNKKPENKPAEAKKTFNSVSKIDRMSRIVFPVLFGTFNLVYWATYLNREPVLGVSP
α2 subunit-containing GABAA receptors, sequence (P18507 40-475): as the sequence (P18507 40-475) above
α2 subunit-containing GABAA receptors, sequence (P28472 26-473 partner): as the sequence (P28472 26-473 partner) above

Row | SMILES | Subtype α2 [1] | Subtype α3 [2] | Subtype α1 [3] | Pharmacokinetics [5] | Subtype α5 [6] | also measured
1 | CC(C)(O)c1ccn2c(-c3ccc(F)c(-c4cccnc4)c3)cnc2n1 [MRK-623] | partial | partial | none | poor | none | functional/subtype selectivity (GABAA receptor subtypes): α2/3GABAA subtype selective; ability of diazepam to suppress rates of responding (rats): blocked; rates of responding after 60-min pretreatment of diazepam (acute dependence) (Sprague-Dawley rats): neither L-838,417 nor MRK-623 altered rates of responding; bioavailability (in words) ([4]; in vivo): fair; half-life [4]: 30 min
2 | CCn1ncnc1COc1nn2c(-c3ccccc3F)nnc2cc1C(C)(C)C [TPA023] | partial | partial | none | good | none | adverse effects leading to halt in Phase II ([7]; human, in vivo): cataract development; anxiolysis in patients with Generalized Anxiety Disorder ([7]; post hoc analyses, three clinical trials): significant anxiolysis; efficacy at α1GABAA subtype [3]: no efficacy
3 | O=C1Nc2ccc(Cl)cc2C(c2ccccc2Cl)=NC1O (centres unmarked) [lorazepam, reference compound] |  |  |  |  |  | median break point (BP), highest response requirement (rhesus monkeys [8]): 320
4 | Cc1nnc2n1-c1ccc(Cl)cc1C(c1ccccc1Cl)=NC2 [triazolam, reference compound] |  |  |  |  |  | accuracy in DMTS and SOSS tasks (rhesus monkeys [9]): significantly reduced accuracy
